Activity calls are given as the source filed them. The rule behind the calls is not given here.
Legend:
HeLa = experiment: Antiproliferative activity against human HeLa cells assessed as reduction in cell viability measured after 48 hrs by MTT assay; format: functional, cell-based
MCF7 = experiment: Antiproliferative activity against human MCF7 cells assessed as reduction in cell viability measured after 48 hrs by MTT assay; format: functional, cell-based; conditions: MCF7, 48 h
B16-F10 [1] = experiment: Antiproliferative activity against mouse B16-F10 cells assessed as reduction in cell viability measured after 48 hrs by MTT assay; format: functional, cell-based; conditions: B16-F10, 48 h
A549 = experiment: Antiproliferative activity against human A549 cells assessed as reduction in cell viability measured after 48 hrs by MTT assay; format: functional, cell-based; conditions: A549, 48 h
A2780S = experiment: Antiproliferative activity against human A2780S cells assessed as reduction in cell viability measured after 48 hrs by MTT assay; format: functional, cell-based
A2780/Taxol [2] = experiment: Antiproliferative activity against human A2780T cells assessed as reduction in cell viability measured after 48 hrs by MTT assay; format: functional, cell-based
[3] = Resistance index, ratio of IC50 for antiproliferative activity against human A2780T cells assessed as reduction in cell viability measured after 48 hrs by MTT assay to IC50 for antiproliferative activity against human A2780S cells assessed as reduction in cell viability measured after 48 hrs by MTT assay; format: functional
A2780/Taxol [4] = experiment: Inhibition of colony formation in human A2780T cells assessed as decrease in colonies at 100 nM measured after 24 hrs by photographic imaging analysis; format: functional, cell-based
B16-F10 [5] = experiment: Antitumor activity against mouse B16-F10 cells inoculated in BALB/c mouse assessed as tumor growth inhibition at 10 mg/kg, ip qd for 14 days by caliper method relative to control; format: functional; conditions: 336 h, time 14 day, read-out: TGI

IC50 (HeLa) [nM] | IC50 (MCF7) [nM] | IC50 (B16-F10 [1]) [nM] | IC50 (A549) [nM] | Structure (SMILES) | IC50 (A2780S) [nM] | IC50 (A2780/Taxol [2]) [nM] | Ratio IC50 [3] | inhibition (A2780/Taxol [4]) | inhibition in vivo at 10 mg/kg (B16-F10 [5]) [%]
2020 | 360 | 2620 | 6220 | COc1cc(-c2n[nH]c3ccc(-c4ccc5c(cnn5C)c4)cc23)cc(OC)c1OC | – | – | – | – | –
6190 | > 10000 | 6190 | > 10000 | COc1cc(-c2cccc3[nH]c(-c4cccc(C#N)c4)nc23)cc(OC)c1OC | – | – | – | – | –
> 10000 | > 10000 | > 10000 | > 10000 | COc1cc(-c2ccc3[nH]nc(-c4cccc(C(=N)NO)c4)c3c2)cc(OC)c1OC | – | – | – | – | –
7950 | 6190 | 7950 | > 10000 | COc1ccc(-c2cc3nccc(-c4cc(OC)c(OC)c([Se]C)c4)n3n2)cc1[N+](=O)[O-] | – | – | – | – | –
> 10000 | > 10000 | > 10000 | > 10000 | COc1ccc(-c2n[nH]c3ccc(-c4cc(OC)c(OC)c(OC)c4)cc23)cc1 | – | – | – | – | –
547 | 245 | 394 | 445 | COc1cc(-c2n[nH]c3ccc(-c4ccccc4)cc23)cc(OC)c1OC | – | – | – | – | –
141 | 26 | 64 | 93 | COc1cc(-c2n[nH]c3ccc(-c4ccc5c(ccn5C)c4)cc23)cc(OC)c1OC | – | – | – | – | –
926 | 606 | 635 | 759 | COc1cc(-c2n[nH]c3ccc(-c4ccc(F)cc4)cc23)cc(OC)c1OC | – | – | – | – | –
981 | 176 | 631 | 1010 | COc1cc(-c2cccc3[nH]c(-c4cn(C)c5ccccc45)nc23)cc(OC)c1OC | – | – | – | – | –
3790 | 3160 | 1600 | 2980 | COc1cc(-c2n[nH]c3ccc(-c4ccc(C(=N)NO)cc4)cc23)cc(OC)c1OC | – | – | – | – | –
8620 | > 10000 | 7260 | 7900 | COc1cc(-c2ccc3[nH]nc(-c4cc(OC)c(OC)c(OC)c4)c3c2)cc(OC)c1OC | – | – | – | – | –
8520 | 3160 | 8520 | 6980 | COc1cc(-c2ccnc3cc(-c4ccc(S(C)(=O)=O)cc4)nn23)cc([Se]C)c1OC | – | – | – | – | –
3700 | 1180 | 3700 | 1250 | COc1cc(-c2ccnc3cc(-c4ccc5cnn(C)c5c4)nn23)cc([Se]C)c1OC | – | – | – | – | –
2040 | 2380 | 1710 | 1040 | COc1cc(-c2n[nH]c3ccc(-c4cccc(C#N)c4)cc23)cc(OC)c1OC | – | – | – | – | –
662 | 349 | 662 | 360 | COc1cc(-c2ccnc3cc(-c4c[nH]c5ccccc45)nn23)cc([Se]C)c1OC | – | – | – | – | –
> 10000 | > 10000 | > 10000 | > 10000 | Cn1ccc2cc(-c3nccn4c(-c5ccc6c(ccn6C)c5)cnc34)ccc21 | – | – | – | – | –
> 10000 | > 10000 | > 10000 | > 10000 | COc1cc(-c2ccc3[nH]nc(-c4ccc(C(=N)NO)cc4)c3c2)cc(OC)c1OC | – | – | – | – | –
4680 | > 10000 | 8030 | 6250 | COc1cc(-c2n[nH]c3ccc(-c4cccc(C(=N)NO)c4)cc23)cc(OC)c1OC | – | – | – | – | –
2070 | 1050 | 1410 | 1030 | COc1cc(-c2n[nH]c3ccc(-c4ccc(C#N)cc4)cc23)cc(OC)c1OC | – | – | – | – | –
856 | 313 | 856 | 224 | COc1cc(-c2ccnc3cc(-c4cn(CO)c5ccccc45)nn23)cc([Se]C)c1OC | – | – | – | – | –

IC50 (HeLa) [nM] | IC50 (MCF7) [nM] | IC50 (B16-F10 [1]) [nM] | IC50 (A549) [nM] | Structure (SMILES) | IC50 (A2780S) [nM] | IC50 (A2780/Taxol [2]) [nM] | Ratio IC50 [3] | inhibition (A2780/Taxol [4]) | inhibition in vivo at 10 mg/kg (B16-F10 [5]) [%]
> 10000 | > 10000 | > 10000 | > 10000 | COc1cc(-c2nccn3c(-c4ccc5c(ccn5C)c4)cnc23)cc(OC)c1OC | – | – | – | – | –
1540 | 700 | 746 | 2600 | COc1cc(-c2cccc3[nH]c(-c4ccc5c(ccn5C)c4)nc23)cc(OC)c1OC | – | – | – | – | –
> 10000 | > 10000 | > 10000 | > 10000 | COc1cc(-c2ccc3[nH]nc(-c4ccccc4)c3c2)cc(OC)c1OC | – | – | – | – | –
443 | 168 | 443 | 231 | COc1cc(-c2ccnc3cc(-c4ccc(C)cc4)nn23)cc([Se]C)c1OC | – | – | – | – | –
> 10000 | > 10000 | > 10000 | > 10000 | COc1cc(-c2ccc3[nH]nc(-c4ccc(C#N)cc4)c3c2)cc(OC)c1OC | – | – | – | – | –
– | – | – | – | CC(=O)O[C@H]1C(=O)[C@@]2(C)[C@H]([C@H](OC(=O)c3ccccc3)[C@]3(O)C[C@H](OC(=O)[C@H](O)[C@@H](NC(=O)c4ccccc4)c4ccccc4)C(C)=C1C3(C)C)[C@]1(OC(C)=O)CO[C@@H]1C[C@@H]2O [PACLITAXEL] | 7.5 | 3160 | 421.8 | inactive | 88.7
> 10000 | > 10000 | > 10000 | > 10000 | COc1cc(-c2cccc3[nH]c(-c4ccc(C#N)cc4)nc23)cc(OC)c1OC | – | – | – | – | –
> 10000 | > 10000 | > 10000 | > 10000 | CCCCn1ccc2c(-c3nc4c(-c5cc(OC)c(OC)c(OC)c5)cccc4[nH]3)cccc21 | – | – | – | – | –
> 10000 | > 10000 | > 10000 | > 10000 | COc1cc(-c2cccc3[nH]c(-c4cccc(C(=N)NO)c4)nc23)cc(OC)c1OC | – | – | – | – | –
8030 | 9980 | 9260 | > 10000 | COc1cc(-c2ccc3[nH]nc(-c4ccc5c(ccn5C)c4)c3c2)cc(OC)c1OC | – | – | – | – | –
> 10000 | > 10000 | > 10000 | > 10000 | COc1cc(-c2nccn3c(-c4cc(OC)c(OC)c(OC)c4)cnc23)cc(OC)c1OC | – | – | – | – | –
7120 | 3160 | 7120 | > 10000 | COc1cc(-c2ccnc3cc(-c4ccccc4)nn23)cc([Se]C)c1OC | – | – | – | – | –
> 10000 | > 10000 | > 10000 | > 10000 | COc1cc(-c2cccc3[nH]c(-c4ccc(C(=N)NO)cc4)nc23)cc(OC)c1OC | – | – | – | – | –
> 10000 | > 10000 | > 10000 | > 10000 | COc1cc(-c2cnc3c(-c4ccc5c(ccn5C)c4)nccn23)cc(OC)c1OC | – | – | – | – | –
265 | 43 | 54 | 531 | COc1cc(-c2n[nH]c3ccc(-c4ccc(C)cc4)cc23)cc(OC)c1OC | – | – | – | – | –
132 | 37 | 161 | 191 | COc1ccc(-c2ccc3[nH]nc(-c4cc(OC)c(OC)c(OC)c4)c3c2)cc1 | – | – | – | – | –
> 10000 | > 10000 | > 10000 | > 10000 | COc1cc(-c2ccc3[nH]nc(-c4ccc(C)cc4)c3c2)cc(OC)c1OC | – | – | – | – | –
> 10000 | > 10000 | > 10000 | > 10000 | COc1cc(-c2ccc3[nH]nc(-c4ccc(F)cc4)c3c2)cc(OC)c1OC | – | – | – | – | –
126 | 123 | 126 | 372 | COc1cc(-c2ccnc3cc(-c4ccc5c(ccn5C)c4)nn23)cc([Se]C)c1OC | – | – | – | – | –
> 10000 | > 10000 | > 10000 | > 10000 | COc1cc(-c2ccc3[nH]nc(-c4cccc(C#N)c4)c3c2)cc(OC)c1OC | – | – | – | – | –

Structure (SMILES) | IC50 (HeLa) [nM] | IC50 (MCF7) [nM] | IC50 (B16-F10 [1]) [nM] | IC50 (A549) [nM] | IC50 (A2780S) [nM] | IC50 (A2780/Taxol [2]) [nM] | Ratio IC50 [3] | inhibition (A2780/Taxol [4]) | inhibition in vivo at 10 mg/kg (B16-F10 [5]) [%]
COc1cc2c(c(OC)c1OC)-c1ccc(OC)c(=O)cc1[C@@H](NC(C)=O)CC2 [COLCHICINE] | 83 | 21 | 83 | – | 16.7 | 784 | – | – | –
